The record followed here is BindingDB's records for doi:10.1021/jm801507v (AstraZeneca, 2009).

For experiment [1], the target named is T1, Sterol O-acyltransferase 1 (Homo sapiens, UniProt P35610).
T1 sequence (P35610 whole entry): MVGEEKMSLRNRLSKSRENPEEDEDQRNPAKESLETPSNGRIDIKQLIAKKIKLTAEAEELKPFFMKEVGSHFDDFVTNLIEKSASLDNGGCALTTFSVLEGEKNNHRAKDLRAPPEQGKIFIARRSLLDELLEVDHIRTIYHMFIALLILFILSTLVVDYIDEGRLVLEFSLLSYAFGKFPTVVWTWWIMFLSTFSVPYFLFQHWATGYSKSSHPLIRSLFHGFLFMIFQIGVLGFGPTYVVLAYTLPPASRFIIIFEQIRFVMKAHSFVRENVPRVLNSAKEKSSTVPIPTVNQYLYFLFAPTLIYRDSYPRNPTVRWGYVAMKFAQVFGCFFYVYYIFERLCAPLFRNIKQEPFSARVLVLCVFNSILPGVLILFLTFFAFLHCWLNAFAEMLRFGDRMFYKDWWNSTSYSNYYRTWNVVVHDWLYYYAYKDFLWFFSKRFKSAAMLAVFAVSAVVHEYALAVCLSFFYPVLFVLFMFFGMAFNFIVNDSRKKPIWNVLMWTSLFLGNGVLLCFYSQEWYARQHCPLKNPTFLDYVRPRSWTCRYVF
Briefly: ACAT-1 Enzyme Inhibition Assay. The conditions noted are these: pH 7.4; 37 °C. How it is done:
The reaction was started by adding substrate [14C]oleoyl coenzyme A and incubated. After the reaction was stopped, radioactive cholesteryl oleate product was separated into the organic heptane phase. ACAT-1 activity was quantified by counting aliquots of the upper heptane layer by liquid scintillography.

Experiment [2] has as its target T2, Diacylglycerol O-acyltransferase 1 (Homo sapiens, UniProt O75907).
T2 sequence (O75907 whole entry): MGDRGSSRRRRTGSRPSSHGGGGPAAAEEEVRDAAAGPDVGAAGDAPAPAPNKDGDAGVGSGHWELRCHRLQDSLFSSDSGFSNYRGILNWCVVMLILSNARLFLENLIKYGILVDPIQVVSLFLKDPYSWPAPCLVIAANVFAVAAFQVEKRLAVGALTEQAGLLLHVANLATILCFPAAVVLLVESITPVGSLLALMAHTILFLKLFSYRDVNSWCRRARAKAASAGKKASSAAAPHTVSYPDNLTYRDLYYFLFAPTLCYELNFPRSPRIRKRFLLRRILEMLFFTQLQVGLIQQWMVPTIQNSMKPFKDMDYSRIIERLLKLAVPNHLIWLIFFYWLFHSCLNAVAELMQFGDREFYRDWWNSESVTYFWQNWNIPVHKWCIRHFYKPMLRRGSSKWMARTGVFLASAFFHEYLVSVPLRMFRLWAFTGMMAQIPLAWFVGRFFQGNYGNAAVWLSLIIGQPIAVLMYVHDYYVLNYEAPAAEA
Kind of experiment: DGAT Enzyme Inhibition Assay. As to conditions: pH 7.4; 22 °C. How it is done:
The assay mixture contains test compound, membrane protein, and 1,2 dioleoyl-sn-glycerol in a 96-deep well plate. The reaction was started by adding substrate [14C]oleoyl coenzyme A and incubated. After the reaction was stopped, radioactive triolein product was separated into the organic heptane phase. DGAT activity was quantified by counting aliquots of the upper heptane layer by liquid scintillography.

The term IC50 denotes the concentration that gives 50% inhibition. Consider `CC1(C)Oc2ncnc(N)c2N=C1c1ccc(C23CCCC(CC(=O)O)(CC2)CC3)cc1` [2-[5-(4-{4-amino-7,7-dimethyl-7H-pyrimido[4,5-b][1,4]oxazin-6-yl}phenyl)bicyclo[3.2.2]nonan-1-yl]acetic acid], for which the 50% inhibitory concentration (IC50) came to 28 µM in experiment [1] and 0.069 µM in experiment [2].
